Laboratory results as given in patent publication US20120252730A1, “PLATELET AGGREGATION INHIBITORS” (UNIVERSITY OF CHICAGO, priority 2009, published 2012).
Ends that are not written are not given here.

B1: GRGDSC (SEQ ID NO: 11), immobilized on a self-assembled monolayer (peptide)
peptide: GRGDSC-NH2
modifications: not fully specified (residue 6); also: C-terminal Cys thiol linked to maleimide of monolayer
notes: also called 0.5% GRGDSC SAM
B2: HHLGGAKQAGDVC (SEQ ID NO: 21), immobilized on a self-assembled monolayer (peptide)
peptide: HHLGGAKQAGDVC-NH2
modifications: not fully specified (residue 13); also: C-terminal Cys thiol linked to maleimide of monolayer
notes: also called 0.5% HHLGGAKQAGDVC SAM; γ peptide
B3: HHLGGAKQAGDV (SEQ ID NO: 1), soluble peptide (peptide)
peptide: HHLGGAKQAGDV-NH2
notes: Synthetic peptide; also called γ peptide

Legend:
[1] = test system: αIIbβ3 CHO K1 cells; experiment: Ac-GXGDSC peptide array cell adhesion, αIIbβ3 CHO K1 cells; assay type: cell-based, human; details: 0.5% peptide spots; 300 μM cRGDFG
Experimental: (§1) Cysteine-terminated peptides were immobilized onto maleimide-presenting SAMs by adding 40 μL of 1 mM peptide solution to the biochip and incubating at 37° C. for 1 hour. Substrates were rinsed with DIUF water and ethanol and dried under a stream of nitrogen. αIIbβ3 CHO K1 cells were detached from culture plates with 1 mM EGTA/2 mM EDTA in PBS (phosphate-buffered saline), rinsed with serum-free F-12K medium, centrifuged and resuspended in serum-free F-12K medium supplemented with cRGDFG (SEQ ID NO: 12) (300 μM) and 1× penicillin/streptomycin. After 15-minute of incubation, cells (200,000/mL) were added to substrates in 24-well culture plates. After 2 hour incubation at 37° C. and 5% CO2, media was exchanged for F-12K medium supplemented with 10% FBS, 1× penicillin/streptomycin and cRGDFG (SEQ ID NO: 12) (300 μM). After 2 hours, the substrates were washed gently with warm PBS, and adherent cells were immediately fixed with 4% formaldehyde for 30 minutes, visualized with a 20× objective of a Zeiss Axiovert 200 inverted microscope, and photographed. For cell adhesion assays mediated by Ac-GXGDSC (SEQ ID NO: 26), αIIbβ3 CHO K1 cells were incubated on a 5×4 circle (1 mm diameter) array for 1 hour with serum-free F-12K medium supplemented with cRGDFG (SEQ ID NO: 12) (300 μM) and 1× penicillin/streptomycin, followed by media exchange to F-12K medium supplemented with 10% FBS, 1× penicillin/streptomycin and cRGDFG (SEQ ID NO: 12) (300 μM. The substrates were washed with warm PBS, and adherent cells were immediately fixed and permeabilized with 4% formaldehyde and 0.5% Triton-X for 30 minutes. Fixed cells were stained with DAPI, visualized and photographed with a 20× objective as described. The number of adherent cells per field of view was counted using Image J software. Cells were counted in at least three fields for each circle, and each experiment was repeated 3 times. The degree of adhesion is reported as a percentage of cells that adhere relative to control experiments with the peptide Ac-GRGDSC (SEQ ID NO: 28).
To further assay the binding of peptide ligands to the […] integrin for XGD peptide ligands, an array was used to assess the adhesion of cells to peptides having the arginine residue substituted with each amino acid other than cysteine (e.g., A, D, E, F, G, H, I, K, L, M, N, P, Q, R, S, T, V, W, and Y). The library of Ac-GXGDSC (SEQ ID NO: 26) peptides was synthesized and immobilized in an array with each peptide occupying a 1 mm diameter region of the monolayer (FIG. 61). A suspension of αIIbβ3 CHO K1 cells was applied to the entire array and cells were allowed to attach to regions presenting the various peptides. The substrates were then rinsed and stained with DAPI, and the cells were counted to determine the relative efficiency of cell attachment to peptides in the library. […] Substitution with leucine and isoleucine were also active, though at a lower level.

[2] = test system: αIIbβ3 CHO K1 cells; experiment: Cell adhesion assay: αIIbβ3 CHO K1 cells on SAMs presenting immobilized peptides; assay type: cell-based, human; details: 0.5% peptide SAM; in presence of 300 μM cRGDFG
Experimental: Monolayers were prepared as described (Houseman, et al., 2003). Glass coverslips were sonicated for 30 minutes in deionized ultrafiltered (DIUF) water and then 30 minutes in ethanol and then dried under a stream of nitrogen. Titanium (4 nm) and then gold (29 nm) were evaporated onto the coverslips using an electron beam evaporator (Boc Edwards) at a rate of 0.05-0.10 nm/s and at a pressure of 1 μTorr. The gold-coated coverslips were immersed in an ethanolic solution of maleimide-terminated disulfide (1%) and tri(ethylene glycol)-terminated disulfide (99%) overnight at room temperature. The total disulfide concentration was 1 mM. The substrates were washed with DIUF water, ethanol and then dried under a stream of nitrogen.
The pcDNA3.1 vectors that express human αIIb or β3, respectively, have been described previously (see e.g., Litvinov et al. (2006) Biochemistry, 45: 4957-4964). CHO K1, BHK 21 and HT1080 cells were purchased from ATCC. All CHO cells were cultured at 37° C. and 5% CO2 using F12K medium supplemented with 10% FBS and pen/strep. […] CHO K1 cells were transfected with αIIb and β3 cDNA with FuGENE following the supplier's protocol. Transfected cells were selected with 1 mg/mL zeocin and 1 mg/mL geneticin.
as §1
Monolayers were prepared that presented a mixture of maleimide groups and tri(ethylene glycol) groups with the former present at a density of 0.5% (relative to total alkanethiolate). The monolayers were treated with cysteine-terminated peptides to immobilize the ligands (FIG. 1A). In each case mass spectrometry was used to verify immobilization of the peptides in high yield (Su et al., 2002).
The adhesion and spreading of αIIbβ3 CHO K1 cells to monolayers presenting GRGDSC (SEQ ID NO: 11), HHLGGAKQAGDVC (SEQ ID NO: 21) and a mixture of both peptides was compared. […]

[3] = test system: αIIbβ3 CHO K1 cells; experiment: Blocking of αIIbβ3 CHO K1 cell adhesion to GRGDSC monolayer; assay type: cell-based, human; details: PAC-1 antibody together with cyclic peptide inhibitor cRGDFG
Text: FIG. 2 depicts the results of FACS analyses and binding studies of a αIIbβ3 expressing CHO K1 cell line. […] Transfected αIIbβ3 CHO K1 cells express αIIbβ3 at the cell surface, as detected by anti-β3 and PAC-1 antibody (bottom) (the middle and right hand lanes show anti-β3 antibody and PAC-1 antibody binding, respectively). Panel B is a graph of the concentration of cRGDFG (SEQ ID NO: 12; where F is a D amino acid) versus adhesion of αIIbβ3 CHO K1 cells. The peptide cRGDFG (SEQ ID NO: 12), a cyclic peptide that specifically binds to α5 and αV integrins, inhibits CHO K1 cell adhesion to 0.5% GRGDSC (SEQ ID NO: 11) SAMs. Panels C-F are photomicrographs of cells adhering to GRGDSC (SEQ ID NO: 11).
CHO K1 cells were used that were transfected with the αIIbβ3 receptor, as described previously (Salsmann et al., 2005). Cells were transfected with pcDNA3.1 vectors that coded for αIIb and β3 using FuGENE6 and analyzed by FACS after labeling with the PAC-1 (anti-αIIbβ3) and H-96 (anti-β3) antibodies. Approximately 30% of the cells expressed the receptor (FIG. 2A). Because the CHO K1 cells also express αv and α5 integrins on their surfaces, adhesion experiments were performed in the presence of the cyclic peptide cRGDFG (SEQ ID NO: 12), where F is a D amino acid. […] All experiments that follow, unless stated otherwise, were performed in the presence of 300 μM cRGDFG (SEQ ID NO: 12).

[4] = target: T1, human αIIbβ3 integrin on transfected CHO K1 cells (human, UniProt P08514 32-1039; P05106 27-788); experiment: adhesion of αIIbβ3 CHO cells to the peptide monolayer, 300 µM cRGDFG present
T1 construct: whole, on cells; CHO K1 cells transfected with human αIIb and β3 cDNA; about 30% of the cells expressed the receptor; also called platelet receptor; platelet integrin
Experimental: For cell adhesion assays mediated by Ac-GXGDSC (SEQ ID NO: 26), αIIbβ3 CHO K1 cells were incubated on a 5×4 circle (1 mm diameter) array for 1 hour with serum-free F-12K medium supplemented with cRGDFG (SEQ ID NO: 12) (300 μM) and 1× penicillin/streptomycin, followed by media exchange to F-12K medium supplemented with 10% FBS, 1× penicillin/streptomycin and cRGDFG (SEQ ID NO: 12) (300 μM. The substrates were washed with warm PBS, and adherent cells were immediately fixed and permeabilized with 4% formaldehyde and 0.5% Triton-X for 30 minutes. Fixed cells were stained with DAPI, visualized and photographed with a 20× objective as described. The number of adherent cells per field of view was counted using Image J software. Cells were counted in at least three fields for each circle, and each experiment was repeated 3 times. The degree of adhesion is reported as a percentage of cells that adhere relative to control experiments with the peptide Ac-GRGDSC (SEQ ID NO: 28).
CHO K1 cells were used that were transfected with the αIIbβ3 receptor, as described previously (Salsmann et al., 2005). Cells were transfected with pcDNA3.1 vectors that coded for αIIb and β3 using FuGENE6 and analyzed by FACS after labeling with the PAC-1 (anti-αIIbβ3) and H-96 (anti-β3) antibodies. Approximately 30% of the cells expressed the receptor (FIG. 2A). […]

[5] = target: T1, human αIIbβ3 integrin on transfected …; experiment: soluble peptide (1 pM to 100 µM) inhibits adhesion of αIIbβ3 CHO K1 cells to peptide monolayers
Experimental: Suspensions of αIIbβ3 CHO K1 cells (100,000/mL) were incubated with cRGDFG (SEQ ID NO: 12) (300 μM) in serum-free F-12K medium with 1 mg/mL BSA (bovine serum albumin) and 1× penicillin/streptomycin for 15 minutes at 37° C. and 5% CO₂. These suspensions were then supplemented with soluble peptides at concentrations ranging from 1 pM to 100 μM and further incubated for 15 minutes at 37° C. and 5% CO₂. Cells were then added to monolayers and incubated at 37° C. and 5% CO₂ for 2 hours, then media was exchanged for F-12K medium supplemented with 10% FBS and 1× penicillin/streptomycin. The substrates were further incubated for 2 hours. The substrates were washed gently with warm PBS, and adherent cells were immediately fixed and permeabilized with 4% formaldehyde and 0.5% Triton-X for 30 minutes. Fixed cells were stained with DAPI, visualized and photographed with a 20× as described previously. The number of adherent cells per field of view was counted using Image J. Cells were counted in at least five fields for each substrate, and each experiment was repeated 3 times. The degree of inhibition is reported as a percentage of cells that adhere relative to control experiments in the absence of soluble peptide.
To verify that the two peptides interact with the same site on αIIbβ3, it was determined whether the peptides GRGDS (SEQ ID NO: 4), […] (SEQ ID NO: 1) and AGDV (SEQ ID NO: 22), in soluble form, could block the attachment of cells to the monolayers presenting these ligands. In these experiments identical suspensions of cells (100,000/mL) were first incubated in serum-free F-12K medium supplemented with cRGDFG (SEQ ID NO: 12) (300 μM) and with the soluble peptides in concentrations ranging from 1 pM to 100 μM and then applied the mixtures to monolayers presenting either the GRGDSC (SEQ ID NO: 11), […] (SEQ ID NO: 21), or AGDVC (SEQ ID NO: 17) peptide (SEQ ID NO: 17) (FIG. 5). Cells were allowed to attach for 2 hours, after which media was exchanged to 10% FBS F-12K medium (supplemented with cRGDFG (SEQ ID NO: 12)) and cultured for an additional 2 hours. […]

Row | Molecule | cell adhesion on Ac-GXGDSC array relative to Ac-GRGDSC [1] | also measured
1 | Ac-GAGDSC (Ac-GAGDSC-NH2) | mediated αIIbβ3 CHO K1 cell adhesion | –
2 | Ac-GGGDSC (Ac-GGGDSC-NH2) | mediated αIIbβ3 CHO K1 cell adhesion | –
3 | Ac-GIGDSC (Ac-GIGDSC-NH2) | mediated αIIbβ3 CHO K1 cell adhesion | –
4 | Ac-GKGDSC (Ac-GKGDSC-NH2) | mediated αIIbβ3 CHO K1 cell adhesion | –
5 | Ac-GLGDSC (Ac-GLGDSC-NH2) | mediated αIIbβ3 CHO K1 cell adhesion | –
6 | Ac-GVGDSC (Ac-GVGDSC-NH2) | mediated αIIbβ3 CHO K1 cell adhesion | –
7 | GGRDGSC (scrambled peptide) | did not adhere | adhesion of αIIbβ3 CHO K1 cells to monolayer presenting the peptide [2]: lack of cell attachment
8 | PAC-1 | – | effect on adhesion of αIIbβ3 CHO K1 cells to monolayer presenting GRGDSC [3]: prevented cell adhesion to the monolayer
9 | B1 | – | binding result [4]: binds
10 | B2 | – | binding result [4]: binds
11 | AGDV-NH2 (also called soluble AGDV) [AGDV (SEQ ID NO: 22), soluble peptide] | – | binding result [5]: binds
12 | B3 | – | binding result [5]: binds
13 | GRGDS-NH2 (also called soluble GRGDS) [GRGDS (SEQ ID NO: 4), soluble peptide] | – | binding result [5]: binds
